Measurements as given in ChEMBL document CHEMBL5550217, “Discovery of gem-Dimethyl-hydroxymethylpyridine Derivatives as Potent Non-nucleoside RSV Polymerase Inhibitors” (J Med Chem, 2024).
Activity calls are given as the source filed them. The rule behind the calls is not given here.

How the values were obtained:
Human orthopneumovirus [1] = assay: In vivo antiviral activity against Human respiratory syncytial virus (RSV) M37 infected in lamb model assessed as reduction in gross lesions in lung at 1 to 4 mg/kg, po QD from 1 until 5 day post infection; format: functional, organism-based; settings: dose 1-4 mg/kg
[2] = Plasma protein binding in human assessed as free fraction; format: ADME, cell-free
[3] = Oral bioavailability in Beagle dog at 0.5 mg/kg measured upto 24 hrs by LC-MS/MS analysis; format: ADME, organism-based, Canis lupus familiaris; settings: in vivo
[4] = Cmax in Balb/c mouse at 10 mg/kg, po measured upto 24 hrs by LC-MS/MS analysis; format: ADME, organism-based; settings: in vivo
Human orthopneumovirus [5] = assay: In vivo antiviral activity against Human respiratory syncytial virus (RSV) M37 infected in lamb model assessed as reduction in microscopic lesions in lung at 1 to 4 mg/kg, po QD from 1 until 5 day post infection; format: functional, organism-based; settings: dose 1-4 mg/kg
Human orthopneumovirus [6] = assay: In vivo antiviral activity against Human respiratory syncytial virus (RSV) M37 infected in lamb model assessed as reduction in viral RNA level in lung at 0.25 to 4 mg/kg, po QD from 1 until 5 day post infection by qRT-PCR analysis; format: functional, organism-based; settings: dose 0.25-4 mg/kg
[7] = Half life in Beagle dog at 0.5 mg/kg, iv measured upto 24 hrs by LC-MS/MS analysis; format: ADME, organism-based, Canis lupus familiaris; settings: in vivo
[8] = Clearance in Sprague-Dawley rat at 1.25 mg/kg, iv measured upto 24 hrs by LC-MS/MS analysis; format: ADME, organism-based; settings: in vivo
Human orthopneumovirus [9] = assay: In vivo antiviral activity against Human respiratory syncytial virus (RSV) M37 infected in lamb model assessed as reduction in BALF peak viral titer in lung treated orally QD from 1 until 5 day post infection; format: functional, organism-based; settings: dose 0.4-4 mg/kg, route po
[10] = Cmax in Sprague-Dawley rat at 5 mg/kg, po measured upto 24 hrs by LC-MS/MS analysis; format: ADME, organism-based; settings: in vivo
Human orthopneumovirus [11] = assay: In vivo antiviral activity against Human respiratory syncytial virus (RSV)-A2 intranasally infected in BALB/c mouse assessed as reduction in viral RNA level in lung treated orally QD 1 hr prior infection until 3 day post infection by qRT-PCR analysis; format: functional, organism-based; settings: dose 1-100 mg/kg, route po
[12] = Half life in Balb/c mouse at 2.5 mg/kg, iv measured upto 24 hrs by LC-MS/MS analysis; format: ADME, organism-based; settings: in vivo
Human orthopneumovirus [13] = assay: In vivo antiviral activity against Human respiratory syncytial virus (RSV)-A2 intranasally infected in BALB/c mouse assessed as reduction in viral titer in lung treated orally QD 1 hr prior infection until 3 day post infection by plaque assay; format: functional, organism-based; settings: dose 1-100 mg/kg, route po
[14] = AUC (0 to last) in Balb/c mouse at 10 mg/kg, po measured upto 24 hrs by LC-MS/MS analysis; format: ADME, organism-based; settings: in vivo
[15] = Metabolic stability in dog hepatocytes assessed as intrinsic clearance per 10^6 cells at 1 uM measured upto 180 mins by LC-MS/MS analysis; format: ADME, cell-based, Canis lupus familiaris, Hepatocyte; settings: read-out: CLH
Human orthopneumovirus [16] = assay: In vivo antiviral activity against Human respiratory syncytial virus (RSV) M37 infected in lamb model assessed as reduction in viral titer in lung treated orally QD from 1 until 5 day post infection; format: functional, organism-based; settings: dose 0.4-4 mg/kg, route po
Human orthopneumovirus [17] = assay: In vivo antiviral activity against Human respiratory syncytial virus (RSV) M37 infected in lamb model assessed as lung histopathology score at 1 to 4 mg/kg, po QD from 1 until 5 day post infection by H and E staining based assay; format: functional, organism-based; settings: dose 1-4 mg/kg
[18] = Ratio of drug concentration in Sprague-Dawley rat lung to plasma at 5 mg/kg, po measured upto 24 hrs by LC-MS/MS analysis; format: ADME, organism-based
[19] = Plasma protein binding in dog assessed as free fraction; format: ADME, cell-free, Canis lupus familiaris
Human orthopneumovirus [20] = assay: In vivo antiviral activity against Human respiratory syncytial virus (RSV) M37 infected in lamb model assessed as reduction in RSV cells in lung at 0.25 to 4 mg/kg, po QD from 1 until 5 day post infection by branched DNA technology (RNAscope); format: functional, organism-based; settings: dose 0.25-4 mg/kg
[21] = Volume of distribution at steady state in Balb/c mouse at 2.5 mg/kg, iv measured upto 24 hrs by LC-MS/MS analysis; format: ADME, organism-based; settings: in vivo, read-out: Vdss
[22] = Cmax in Beagle dog at 0.5 mg/kg, po measured upto 24 hrs by LC-MS/MS analysis; format: ADME, organism-based, Canis lupus familiaris; settings: in vivo
[23] = Volume of distribution at steady state in Beagle dog at 0.5 mg/kg, iv measured upto 24 hrs by LC-MS/MS analysis; format: ADME, organism-based, Canis lupus familiaris; settings: in vivo, read-out: Vdss
[24] = Inhibition of human RSV-A strain Memphis 37 RNA polymerase; design: species or system Human respiratory syncytial virus A
[25] = Clearance in Beagle dog at 0.5 mg/kg, iv measured upto 24 hrs by LC-MS/MS analysis; format: ADME, organism-based, Canis lupus familiaris; settings: in vivo
[26] = tested on: Respiratory syncytial virus; assay: Antiviral activity against Respiratory syncytial virus (RSV) infected in human APC-126 cells assessed as replicon by measuring protein adjusted effective concentration in the presence of 40% human serum measured after 3 days by Renilla Glo assay; format: functional, organism-based; settings: 72 h
[27] = Oral bioavailability in Sprague-Dawley rat at 5 mg/kg measured upto 24 hrs by LC-MS/MS analysis; format: ADME, organism-based; settings: in vivo
[28] = Cytotoxicity against human HeLa cells measured after 3 days by ATPlite kit assay; format: toxicity, cell-based; settings: time 3 day
[29] = AUC (0 to last) in Beagle dog at 0.5 mg/kg, po measured upto 24 hrs by LC-MS/MS analysis; format: ADME, organism-based, Canis lupus familiaris; settings: in vivo
[30] = AUC (0 to last) in Sprague-Dawley rat at 5 mg/kg, po measured upto 24 hrs by LC-MS/MS analysis; format: ADME, organism-based; settings: in vivo
[31] = Volume of distribution at steady state in Sprague-Dawley rat at 1.25 mg/kg, iv measured upto 24 hrs by LC-MS/MS analysis; format: ADME, organism-based; settings: in vivo, read-out: Vdss
[32] = Inhibition of RSV RNA polymerase assessed as RNA products using […] template by SPA primer extension enzymatic assay; design: species or system Respiratory syncytial virus
[33] = tested on: Respiratory syncytial virus; assay: Antiviral activity against Respiratory syncytial virus (RSV)-A2-eGFP infected in human HeLa cells assessed as eGFP expression measured after 3 days by RSV Cell-based infection assay; format: functional, organism-based; settings: 72 h
[34] = Metabolic stability in human hepatocytes assessed as intrinsic clearance per 10^6 cells at 1 uM measured upto 180 mins by LC-MS/MS analysis; format: ADME, cell-based, Hepatocyte; settings: read-out: CLH
[35] = Clearance in Balb/c mouse at 2.5 mg/kg, iv measured upto 24 hrs by LC-MS/MS analysis; format: ADME, organism-based; settings: in vivo
[36] = Lipophilicity, logD of the compound; format: physicochemical; settings: octanol/water
[37] = Metabolic stability in rat hepatocytes assessed as intrinsic clearance per 10^6 cells at 1 uM measured upto 180 mins by LC-MS/MS analysis; format: ADME, cell-based, Hepatocyte; settings: read-out: CLH
[38] = Metabolic stability in mouse hepatocytes assessed as intrinsic clearance per 10^6 cells at 1 uM measured upto 180 mins by LC-MS/MS analysis; format: ADME, cell-based, Hepatocyte; settings: read-out: CLH
P-glycoprotein = assay: Efflux ratio of permeability in dog MDCK-MDR1 cells assessed as P-glycoprotein mediated efflux; format: ADME, cell-based, Canis lupus familiaris
[39] = Plasma protein binding in mouse assessed as free fraction; format: ADME, cell-free
[40] = Plasma protein binding in rat assessed as free fraction; format: ADME, cell-free
[41] = Apparent permeability across apical to basolateral side in dog MDCK-MDR1 cells at 5 uM measured after 60 mins; format: ADME, cell-based, Canis lupus familiaris
[42] = Half life in Sprague-Dawley rat at 1.25 mg/kg, iv measured upto 24 hrs by LC-MS/MS analysis; format: ADME, organism-based; settings: in vivo
[43] = Oral bioavailability in Balb/c mouse at 10 mg/kg measured upto 24 hrs by LC-MS/MS analysis; format: ADME, organism-based; settings: in vivo

## COc1cc(C(=O)NC[C@](O)(c2cc(C(C)(C)O)c(F)c(-c3ccc(F)cc3)n2)C(F)(F)F)cc2cc(C)nnc12
Human orthopneumovirus [1]
  Activity: Active
[2]
  Fu: 0.66%
[3]
  bioavailability: 81%
[4]
  Cmax: 1730 ng/mL
Human orthopneumovirus [5]
  Activity: Active
Human orthopneumovirus [6]
  Activity: Active
[7]
  half-life: 4.25 h
[8]
  clearance: 8.03 mL/min/kg
Human orthopneumovirus [9]
  Activity: Dose-Dependent Effect
[10]
  Cmax: 401 ng/mL
Human orthopneumovirus [11]
  Activity: Dose-Dependent Effect
[12]
  half-life: 1.95 h
Human orthopneumovirus [13]
  Activity: Dose-Dependent Effect
[14]
  AUC(0-t) at 24 h: 9580 ng·h/mL
[15]
  hepatocyte CLint at 1 µM: 6.4 µL/min/1e6 cells
Human orthopneumovirus [16]
  Activity: Dose-Dependent Effect
Human orthopneumovirus [17]
  Activity: Active
[18]
  Kp at 24 h: 1
[19]
  Fu: 0.87%
Human orthopneumovirus [20]
  Activity: Active
[21]
  Vd: 1.68 L/kg
[22]
  Cmax: 249 ng/mL
[23]
  Vd: 1.49 L/kg
[24]
  IC50: 0.3 nM
[25]
  clearance: 5.62 mL/min/kg
[26]
  EC50: 13 nM
[27]
  bioavailability: 20%
[28]
  CC50 at 72 h: 27700 nM
[29]
  AUC(0-t) at 24 h: 1200 ng·h/mL
[30]
  AUC(0-t) at 24 h: 2100 ng·h/mL
[31]
  Vd: 1.04 L/kg
[32]
  IC50: 0.29 nM
[33]
  EC50: 0.82 nM
[34]
  hepatocyte CLint at 1 µM: < 1.9 µL/min/1e6 cells
[35]
  clearance: 10.6 mL/min/kg
[36]
  logD: 3.55
[37]
  hepatocyte CLint at 1 µM: 27 µL/min/1e6 cells
[38]
  hepatocyte CLint at 1 µM: 6.2 µL/min/1e6 cells
P-glycoprotein
  efflux ratio: > 93
[39]
  Fu: 0.45%
[40]
  Fu: 0.13%
[41]
  Papp A→B at 1 h, 5 µM: 9.8 ×10⁻⁶ cm/s
[42]
  half-life: 3.15 h
[43]
  bioavailability: 61%
